Results taken from the NIST ThermoML archive (doi:10.1016/j.fluid.2015.03.016).
Several values for one entry are separate records, joined by “and”; a condition that tells them apart may be missing. Equal entries are not always repeated. Numbers after ± are expanded uncertainties.

Settings: Liquid

CCCCOC(=O)CCCCC(=O)OCCCC [dibutyl hexanedioate]
Settings	viscosity
313.14 K, 50610 kPa, Vibrating wire viscometry	5.595 ± 0.093 mPa·s and 5.596 ± 0.093 mPa·s and 5.591 ± 0.093 mPa·s
313.14 K, 50640 kPa, Vibrating wire viscometry	5.591 ± 0.093 mPa·s
313.14 K, 65090 kPa, Vibrating wire viscometry	6.358 ± 0.11 mPa·s
313.14 K, 65110 kPa, Vibrating wire viscometry	6.365 ± 0.11 mPa·s
313.15 K, 5050 kPa, Vibrating wire viscometry	3.522 ± 0.065 mPa·s and 3.516 ± 0.067 mPa·s
313.15 K, 5310 kPa, Vibrating wire viscometry	3.531 ± 0.077 mPa·s
313.15 K, 5320 kPa, Vibrating wire viscometry	3.531 ± 0.075 mPa·s
313.15 K, 5340 kPa, Vibrating wire viscometry	3.529 ± 0.071 mPa·s
313.15 K, 5350 kPa, Vibrating wire viscometry	3.534 ± 0.071 mPa·s
313.15 K, 5370 kPa, Vibrating wire viscometry	3.531 ± 0.067 mPa·s
313.15 K, 5380 kPa, Vibrating wire viscometry	3.532 ± 0.066 mPa·s
313.15 K, 7570 kPa, Vibrating wire viscometry	3.59 ± 0.06 mPa·s
313.15 K, 7580 kPa, Vibrating wire viscometry	3.595 ± 0.06 mPa·s
313.15 K, 7610 kPa, Vibrating wire viscometry	3.598 ± 0.06 mPa·s
313.15 K, 10450 kPa, Vibrating wire viscometry	3.717 ± 0.062 mPa·s
313.15 K, 10470 kPa, Vibrating wire viscometry	3.712 ± 0.062 mPa·s
313.15 K, 10500 kPa, Vibrating wire viscometry	3.714 ± 0.062 mPa·s
313.15 K, 15160 kPa, Vibrating wire viscometry	3.887 ± 0.065 mPa·s and 3.889 ± 0.065 mPa·s
313.15 K, 15180 kPa, Vibrating wire viscometry	3.891 ± 0.065 mPa·s
313.15 K, 20420 kPa, Vibrating wire viscometry	4.122 ± 0.069 mPa·s
313.15 K, 30150 kPa, Vibrating wire viscometry	4.56 ± 0.076 mPa·s
313.15 K, 30200 kPa, Vibrating wire viscometry	4.555 ± 0.076 mPa·s
323.11 K, 101.33 kPa, Capillary tube (Ostwald / Ubbelohde) method	2.704 ± 0.084 mPa·s
323.14 K, 1140 kPa, Vibrating wire viscometry	2.727 ± 0.045 mPa·s and 2.723 ± 0.045 mPa·s
323.14 K, 5040 kPa, Vibrating wire viscometry	2.856 ± 0.048 mPa·s
323.14 K, 10170 kPa, Vibrating wire viscometry	3.018 ± 0.05 mPa·s
323.14 K, 30230 kPa, Vibrating wire viscometry	3.694 ± 0.061 mPa·s and 3.693 ± 0.061 mPa·s
323.14 K, 39990 kPa, Vibrating wire viscometry	4.08 ± 0.068 mPa·s
323.14 K, 40050 kPa, Vibrating wire viscometry	4.079 ± 0.068 mPa·s
323.15 K, 1130 kPa, Vibrating wire viscometry	2.728 ± 0.045 mPa·s and 2.722 ± 0.045 mPa·s
323.15 K, 2630 kPa, Vibrating wire viscometry	2.775 ± 0.046 mPa·s
323.15 K, 2640 kPa, Vibrating wire viscometry	2.778 ± 0.046 mPa·s
323.15 K, 2650 kPa, Vibrating wire viscometry	2.776 ± 0.046 mPa·s and 2.775 ± 0.046 mPa·s
323.15 K, 5040 kPa, Vibrating wire viscometry	2.856 ± 0.048 mPa·s
323.15 K, 5070 kPa, Vibrating wire viscometry	2.86 ± 0.048 mPa·s
323.15 K, 5100 kPa, Vibrating wire viscometry	2.863 ± 0.048 mPa·s
323.15 K, 5170 kPa, Vibrating wire viscometry	2.846 ± 0.048 mPa·s
323.15 K, 5180 kPa, Vibrating wire viscometry	2.841 ± 0.048 mPa·s
323.15 K, 5190 kPa, Vibrating wire viscometry	2.843 ± 0.048 mPa·s
323.15 K, 7740 kPa, Vibrating wire viscometry	2.926 ± 0.049 mPa·s and 2.931 ± 0.049 mPa·s
323.15 K, 7750 kPa, Vibrating wire viscometry	2.924 ± 0.049 mPa·s
323.15 K, 7760 kPa, Vibrating wire viscometry	2.926 ± 0.049 mPa·s and 2.931 ± 0.049 mPa·s
323.15 K, 10130 kPa, Vibrating wire viscometry	3.018 ± 0.05 mPa·s
323.15 K, 10140 kPa, Vibrating wire viscometry	3.02 ± 0.05 mPa·s
323.15 K, 10150 kPa, Vibrating wire viscometry	3.02 ± 0.05 mPa·s and 3.016 ± 0.05 mPa·s
323.15 K, 15220 kPa, Vibrating wire viscometry	3.172 ± 0.053 mPa·s and 3.173 ± 0.053 mPa·s and 3.174 ± 0.053 mPa·s
323.15 K, 15230 kPa, Vibrating wire viscometry	3.175 ± 0.053 mPa·s and 3.171 ± 0.053 mPa·s
323.15 K, 20200 kPa, Vibrating wire viscometry	3.331 ± 0.056 mPa·s
323.15 K, 20230 kPa, Vibrating wire viscometry	3.327 ± 0.055 mPa·s and 3.335 ± 0.056 mPa·s
323.15 K, 20250 kPa, Vibrating wire viscometry	3.33 ± 0.056 mPa·s
323.15 K, 20270 kPa, Vibrating wire viscometry	3.334 ± 0.056 mPa·s
323.15 K, 30190 kPa, Vibrating wire viscometry	3.693 ± 0.061 mPa·s
323.15 K, 30220 kPa, Vibrating wire viscometry	3.689 ± 0.061 mPa·s
323.15 K, 40130 kPa, Vibrating wire viscometry	4.073 ± 0.068 mPa·s
323.15 K, 40140 kPa, Vibrating wire viscometry	4.077 ± 0.068 mPa·s
323.15 K, 50030 kPa, Vibrating wire viscometry	4.456 ± 0.074 mPa·s
323.15 K, 50050 kPa, Vibrating wire viscometry	4.45 ± 0.074 mPa·s
323.15 K, 50060 kPa, Vibrating wire viscometry	4.457 ± 0.074 mPa·s
323.16 K, 5190 kPa, Vibrating wire viscometry	2.849 ± 0.048 mPa·s
323.16 K, 65110 kPa, Vibrating wire viscometry	5.126 ± 0.095 mPa·s
323.16 K, 65190 kPa, Vibrating wire viscometry	5.123 ± 0.085 mPa·s
323.16 K, 65230 kPa, Vibrating wire viscometry	5.125 ± 0.085 mPa·s
323.16 K, 65310 kPa, Vibrating wire viscometry	5.119 ± 0.095 mPa·s
333.03 K, 101.33 kPa, Capillary tube (Ostwald / Ubbelohde) method	2.25 ± 0.07 mPa·s
333.15 K, 1000 kPa, Vibrating wire viscometry	2.27 ± 0.038 mPa·s
333.15 K, 1020 kPa, Vibrating wire viscometry	2.27 ± 0.038 mPa·s
333.15 K, 1170 kPa, Vibrating wire viscometry	2.269 ± 0.041 mPa·s
333.15 K, 1200 kPa, Vibrating wire viscometry	2.268 ± 0.047 mPa·s
333.15 K, 2530 kPa, Vibrating wire viscometry	2.296 ± 0.039 mPa·s
333.15 K, 5030 kPa, Vibrating wire viscometry	2.367 ± 0.053 mPa·s
333.15 K, 5050 kPa, Vibrating wire viscometry	2.362 ± 0.046 mPa·s
333.15 K, 5070 kPa, Vibrating wire viscometry	2.365 ± 0.04 mPa·s
